In patent US20230381774A1, “MICROFLUDIC LAB-ON-CHIP DEVICE, MATRIX, SMALL MOLECULES AND THREE-DIMENSIONAL SPHEROIDS FOR CELL REPROGRAMMING” (The Regents of the University of California, priority 2022, published 2023):

Legend:
Type in all cases: cell-based, mouse
[1] = tested on: histone deacetylase (HDAC); assay: HDAC activity assay on nuclear extracts of treated fibroblasts; details: 10 μM blebbistatin or 5 μM PF573228, 2 hours, vs DMSO
Method: (§1) Nuclear protein extractions were isolated from 5×10^5 fibroblasts treated with vehicle control (DMSO), 10 μM blebbistatin or 5 μM PF573228 for 2 hours using a nuclear extraction kit (EpiGentek, OP-0002), in accordance with the manufacturer's instructions. HAT, HDAC, H3K4 HMT, H3K4 HDM and DNMT activity were measured using the HAT activity/inhibition assay (EpiGentek, P-4003-048), HDAC activity/inhibition assay (EpiGentek, P-4034-096), Histone methyltransferase (H3K4 specific) activity/inhibition assay (EpiGentek, P-3002-1), Histone Demethylase (H3K4 specific) activity/inhibition assay (EpiGentek, P-3074-48), and DNMT activity/inhibition assay (EpiGentek, P-3009-048), respectively. Per the manufacturer's instructions, 20 μg of nuclear extract was added into the assay wells and incubated at 37° C. for 90 minutes. After adding the color developer solution, the absorbance was measured using a plate reader (Infinite […], 30050303) at 450 nm for all the assays with the exception of the Histone Demethylase (H3K4 specific) activity/inhibition assay where we measured the fluorescence using a fluorescence microplate reader at 530 EX/590 EM nm.

[2] = tested on: histone acetyltransferase (HAT); assay: HAT activity assay on nuclear extracts of treated fibroblasts; details: 10 μM blebbistatin or 5 μM PF573228, 2 hours, vs DMSO
Method: as §1

iN cells = assay: Patch-clamp electrophysiology of iN cells; details: for functionality of derived iN cells: electrophysiological analysis
Method: For functional assessment of the iN cells, patch-clamp electrophysiology analysis was performed. All experiments were conducted at room temperature (22° C.-24° C.). All reagents were purchased from Sigma-Aldrich unless otherwise specified. Whole-cell recording was made from neurons using a patch clamp amplifier (MultiClamp 700B, Axon Instr.) under infrared differential interference contrast optics. Microelectrodes were made from borosilicate glass capillaries, with a resistance of 4-5 MW. For recording action potentials, cells were held at −70 mV in a […]. The intracellular solution for whole-cell recording of EPSPs and action potentials contained (in mM) 140 potassium gluconate, 5 KCl, 10 HEPES, 0.2 EGTA, 2 MgCl2, 4 MgATP, 0.3 Na2GTP and 10 Na2-phosphocreatine, pH 7.2 (adjusted with KOH).
For recording spontaneous EPSCs (sEPSCs), cells were pre-treated with the extracellular bath solution containing 50 μM picrotoxin (Tocris) to exclude an inhibitory synaptic activity and held at −70 mV in a voltage-clamp mode with the intracellular solution containing (in mM) 130 CsMeSO4, 7 CsCl, 10 HEPES, 1 EGTA, 4 MgATP, 0.3 Na2GTP, and 10 Na2-phosphocreatine, pH 7.3 (adjusted with CsOH). After recording basal sEPSC responses for 5 min, 10 μM CNQX (Tocris) and 100 μM D,L-APV (Tocris) were co-treated to test whether sEPSCs were mediated by activation of both AMPA- and NMDA-type of glutamate receptors. For measuring spontaneous IPSC (sIPSCs), cells were pre-treated with the bath solution containing 10 μM CNQX and 100 μM D,L-APV and held at −70 mV with the intracellular solution containing (in mM) 137 CsCl, 10 HEPES, 1 EGTA, 4 MgATP, 0.3 Na2GTP, and 10 Na2-phosphocreatine, pH 7.3 (adjusted with CsOH). 50 μM picrotoxin was then treated to test a dependency of sIPSCs on GABA receptors after acquiring basal sIPSC responses for 5 min. Series resistance (10-25 MΩ) and input resistance (˜200 MΩ using potassium-based internal solution; 1-2 G2 using Cs-based internal solution) were monitored throughout the whole-cell recording or compared before and after sEPSC/IPSC recordings.
Off-line analyses of action potential properties (number, amplitude, half-width) and the amplitude and frequency of sEPSC and sIPSC were performed by using a threshold event detection function of the Clampfit software (Molecular Devices). Visualization of analysis results and their statistical tests were performed by using GraphPad Prism® 6.0 software.

[3] = tested on: H3K4-specific histone demethylase (HDM); assay: H3K4 HDM activity assay on nuclear extracts of treated fibroblasts; details: 10 μM blebbistatin or 5 μM PF573228, 2 hours, vs DMSO
Method: as §1

histone marks = assay: Immunofluorescence of histone marks in non-transduced fibroblasts; details: global; 10 μM blebbistatin or 5 μM PF573228, 2 hours, vs control
Method: For immunostaining, cells were fixed with 4% paraformaldehyde (Electron Microscopy Sciences), permeabilized with 0.5% Triton-X-100 (Sigma), and blocked with 5% donkey serum (Jackson Immunoresearch) in phosphate buffered saline (PBS). For actin-cytoskeleton staining, samples were incubated with fluorescein isothiocyanate-conjugated phalloidin (Invitrogen) for 1 hour. Primary antibodies were incubated for 1 hour at room temperature or overnight at 4° C., followed by 1-hour incubation with Alexa 488 and/or Alexa 546-labeled secondary antibodies (Molecular Probes). Nuclei were stained with 4,6-diamino-2-phenylindole (DAPI) (Invitrogen).
Quantification of histone intensity per nuclei was performed using an ImageJ macro. DAPI-stained nuclei were segmented using gaussian blur, thresholding, watershed, and analyze particle functions to identify individual nuclei. This mask was applied to the corresponding stained fluorescence channel to quantify the average fluorescence intensity within each nucleus.

[4] = absence vs presence of blebbistatin

Compound | HDAC activity [1] | HAT activity [2] | functionality of derived iN cells (iN cells) | H3K4-specific HDM activity [3] | euchromatin marks (AcH3, H3K4me3, H3K4me1) (histone marks) | heterochromatin marks (H3K27me3, H3K9me3) (histone marks) | frequency of spontaneous EPSCs (iN cells; [4]) | frequency of spontaneous IPSCs (iN cells; [4]) | IPSC amplitude (iN cells; blebbistatin-derived iN cells) | EPSC amplitude (iN cells; iN cells derived with blebbistatin) | action potential properties (iN cells; iN cells generated in absence vs presence of blebbistatin)
CS(=O)(=O)c1cccc(CNc2nc(Nc3ccc4c(c3)CCC(=O)N4)ncc2C(F)(F)F)c1 [PF573228] | differences | differences | exhibited functional neuronal properties as assessed by electrophysiological analysis | differences | global increases in AcH3, H3K3me3 and H3K4me1 marks | a concurrent decrease in H3K9me3 and H3K27me3 |  |  |  |  | 
Cc1ccc2c(c1)C(=O)C1(O)CCN(c3ccccc3)C1=N2 (centres unmarked) [blebbistatin] | reducing | increased | functional, exhibiting spontaneous changes in membrane potential in response to current injection | reduced | an increase in AcH3, H3K4me3, and H3K4me1 marks | decreased | no significant difference | no significant difference | significantly lower | significantly higher | no apparent difference
